The record followed here is patent US8637528B2, “Use of PDE7 inhibitors for the treatment of movement disorders” (Omeros Corporation, priority 2007, dated 2014).

Test [1] concerns MPTP-treated mice. Briefly: inked paw stride length in the MPTP mouse model of Parkinson's disease, confirmatory study (Example 6). It is filed as in vivo. Also on record: key to Letter Designation (statistical group of stride length): A: Groups that share a letter are not statistically different; groups that do not share a letter are significantly different from each other.; B: Groups that share a letter are not statistically different; groups that do not share a letter are significantly different from each other.; C: Groups that share a letter are not statistically different; groups that do not share a letter are significantly different from each other. The settings on record: for Letter Designation (statistical group of stride length): No treatment = A, MPTP = B; for Stride length (cm) MEAN ± SEM: MPTP-lesioned mice, 20 minutes after dosing. The procedure: Adult male C57BL/6J; retired breeders, aged between 7-9 months (Jackson Laboratory, Bar Harbor, Me., USA), singly housed.
MPTP Mice received 2 subcutaneous injections of methylphenyltetrahydropyridine (“MPTP”) at a dose of 15 mg/kg (free base) with a 10-12 hour interval between injections. Control mice (sham lesion groups) were administered saline instead of MPTP.
Seven days after MPTP/saline administration, OM69 was administered to mice. For each dose, a 100× stock of OM69 was prepared in 100% DMSO and subsequently diluted 100× into phosphate buffered saline (PBS). Then 100 μL of this 1× solution was administered intraperitoneally (IP).
Prior to injection with MPTP or saline, animals were pre-trained to walk across a clean sheet of paper into their home cage without stopping. For assessment of stride length, animals had their forepaws placed in black ink and the length of forepaw steps during normal walking (in a straight line only) was measured. The animals were immediately put back into their home cage upon completion of the task. Stride length was determined by measuring the distance between each step on the same side of the body, measuring from the middle toe of the first step to the heel of the second step. An average of at least four clear steps was calculated.
Data was analyzed using Prism 4.0 software. Groups were analyzed by one way ANOVA and Student-Newman-Keuls post hoc test when appropriate. Significance was considered reached at p<0.05. Treatment groups in the stride length graph that are statistically different are indicated by the letters in Table 6.
Retired breeder male mice (28 animals total) were treated with 2×15 mg/kg MPTP (12 saline; […]) to induce a Parkinsonian state (neurochemical loss of dopamine with corresponding behavioral deficits). On day 1 baseline stride length was measured and then all mice were treated with MPTP or saline. On day 8 stride length was measured again, and then the MPTP-treated animals were divided randomly into two groups of fourteen. As described in Example 5, dosing with the successive treatments indicated in FIG. 12 occurred on consecutive days, and in each case stride length was measured 20 minutes after dosing.
On Day 9, Group 1 animals were treated with OM69 (0.01 mg/kg) and Group 2 were treated with L-dopa (1 mg/kg). On Day 10, Group 1 animals were treated with OM69 (0.03 mg/kg) and Group 2 were treated with L-dopa (5 mg/kg). On Day 11, Group 1 animals were treated with OM69 (0.05 mg/kg) and Group 2 were treated with OM69 (0.1 mg/kg). On Day 12, Group 1 was treated with OM69 (0.07 mg/kg).
Next, for combination studies, the two groups were combined. On Day 14, all the animals were treated with both L-dopa (1 mg/kg) and OM69 (0.01 mg/kg). On Day 15, all the animals were treated with L-dopa (1 mg/kg) in combination with a higher dose of OM69 (0.03 mg/kg).

Test [2] concerns the target PDE7A (Homo sapiens (Human), UniProt Q13946). Briefly: PDE7 phosphodiesterase scintillation proximity assay (SPA), PDE7A. It is filed as biochemical. The settings on record: for Fold Selectivity, PDE7A: IC50 against PDE7A divided by IC50 against PDE7A; for selectivity for inhibition of the PDE7A enzyme as compared to the other PDEs: versus PDE1B, 2A, 3A, 4A, 5A, 8A, 9A, 10A, 11A. For orientation: In a scintillation proximity assay essentially only radioactivity close to the scintillant gives light.

For test [3], the target named is PDE1B (Homo sapiens (Human), UniProt Q01064). Kind of test: PDE selectivity SPA assay, PDE1B. It is filed as biochemical. The settings on record: IC50 against PDE1B divided by IC50 against PDE7A. How it is done:
(§1) Phosphodiesterase activity was measured by a scintillation proximity assay (SPA, GE Healthcare: Product Code TRKQ7100) with [^3H]-cAMP as the substrate for PDEs 3A, 4A, 8A, or with [^3H]-cGMP as the substrate for PDEs 1B, 2A, 5A, 9A, 10A and 11A. Purified human PDE1B, PDE2A, PDE3A, PDE4A, PDE5A, PDE8A, PDE9A and PDE11A4 were obtained from BPS Bioscience, San Diego, Calif. Purified murine PDE10A was also obtained from BPS Biosciences. […] Therefore, the results obtained using murine PDE10A are believed to be representative of human PDE10.
(§2) The purified PDE enzymes were each diluted and stored in a solution containing 25 mM Tris-Cl (pH 8.0), 100 mM NaCl, 0.05% Tween 20, 50% glycerol, and 3 mM DTT. PDE assays were carried out in the following assay cocktail (final concentrations): 50 mM Tris-Cl (pH 8.0), 8.3 mM MgCl2, 1.7 mM EGTA, 0.5 mg/ml BSA, 2.5% DMSO and between 0.2 ng and 6 ng of the PDE protein (depending on the enzyme activity) in a final volume of 0.1 mL.
(§3) Reactions were initiated by addition of enzyme, incubated for 20 minutes at 30° C. and then terminated by the addition of 50 μl of SPA beads containing Zn^2+.
(§4) The mixture was shaken, and allowed to settle for 3 hours. Then the production of [^3H]-AMP or [^3H]-GMP from the substrate was quantitated by scintillation counting in a Wallac® plate counter. […]

The target in test [4] is PDE3A (Homo sapiens (Human), UniProt Q14432). Kind of test: PDE selectivity SPA assay, PDE3A. The test is classed as biochemical. The settings on record: IC50 against PDE3A divided by IC50 against PDE7A.
Test [5] deals with PDE5A (Homo sapiens (Human), UniProt O76074). Kind of test: PDE selectivity SPA assay, PDE5A. The test is classed as biochemical. The note with it: IC50 against PDE5A divided by IC50 against PDE7A. The procedure: as §1, §2, §3, §4
In test [6] the target is PDE8A (Homo sapiens (Human), UniProt O60658). Kind of test: PDE selectivity SPA assay, PDE8A. The settings on record: IC50 against PDE8A divided by IC50 against PDE7A. The test is classed as biochemical.
PDE8A, sequence (O60658 whole entry): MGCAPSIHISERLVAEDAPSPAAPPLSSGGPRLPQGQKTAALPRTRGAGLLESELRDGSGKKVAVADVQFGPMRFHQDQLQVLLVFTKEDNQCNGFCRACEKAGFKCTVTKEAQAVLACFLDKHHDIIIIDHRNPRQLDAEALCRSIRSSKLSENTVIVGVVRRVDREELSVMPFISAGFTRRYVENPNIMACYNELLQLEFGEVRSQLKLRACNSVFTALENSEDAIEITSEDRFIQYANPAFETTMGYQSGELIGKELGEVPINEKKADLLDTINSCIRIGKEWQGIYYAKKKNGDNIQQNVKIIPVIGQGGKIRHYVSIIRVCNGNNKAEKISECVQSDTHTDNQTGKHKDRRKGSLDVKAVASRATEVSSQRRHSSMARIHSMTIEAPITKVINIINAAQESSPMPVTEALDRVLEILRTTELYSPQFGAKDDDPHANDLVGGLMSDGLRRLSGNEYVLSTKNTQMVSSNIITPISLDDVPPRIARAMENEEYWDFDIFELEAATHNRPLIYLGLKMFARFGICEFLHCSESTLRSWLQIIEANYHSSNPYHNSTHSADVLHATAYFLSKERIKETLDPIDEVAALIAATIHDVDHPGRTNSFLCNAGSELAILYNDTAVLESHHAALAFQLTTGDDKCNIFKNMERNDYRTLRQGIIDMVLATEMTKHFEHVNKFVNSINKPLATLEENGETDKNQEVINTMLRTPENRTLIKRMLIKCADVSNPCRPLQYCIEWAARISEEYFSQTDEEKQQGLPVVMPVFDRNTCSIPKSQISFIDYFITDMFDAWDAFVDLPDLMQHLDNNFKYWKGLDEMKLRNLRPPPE

PDE7A, sequence (Q13946 whole entry, looked up): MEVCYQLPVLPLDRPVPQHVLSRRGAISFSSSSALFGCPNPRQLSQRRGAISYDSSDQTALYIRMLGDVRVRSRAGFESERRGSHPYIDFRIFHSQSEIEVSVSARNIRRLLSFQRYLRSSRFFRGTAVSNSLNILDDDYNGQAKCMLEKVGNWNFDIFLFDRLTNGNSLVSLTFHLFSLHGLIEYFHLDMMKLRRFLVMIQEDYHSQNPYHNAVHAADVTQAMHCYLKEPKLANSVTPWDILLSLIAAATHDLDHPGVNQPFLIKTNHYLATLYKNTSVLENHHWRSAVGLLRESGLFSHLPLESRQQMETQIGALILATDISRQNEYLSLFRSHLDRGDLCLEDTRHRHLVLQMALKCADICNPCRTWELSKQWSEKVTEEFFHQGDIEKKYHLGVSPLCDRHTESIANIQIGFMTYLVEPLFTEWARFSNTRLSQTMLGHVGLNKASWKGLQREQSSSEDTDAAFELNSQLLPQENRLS
PDE3A, sequence (Q14432 whole entry): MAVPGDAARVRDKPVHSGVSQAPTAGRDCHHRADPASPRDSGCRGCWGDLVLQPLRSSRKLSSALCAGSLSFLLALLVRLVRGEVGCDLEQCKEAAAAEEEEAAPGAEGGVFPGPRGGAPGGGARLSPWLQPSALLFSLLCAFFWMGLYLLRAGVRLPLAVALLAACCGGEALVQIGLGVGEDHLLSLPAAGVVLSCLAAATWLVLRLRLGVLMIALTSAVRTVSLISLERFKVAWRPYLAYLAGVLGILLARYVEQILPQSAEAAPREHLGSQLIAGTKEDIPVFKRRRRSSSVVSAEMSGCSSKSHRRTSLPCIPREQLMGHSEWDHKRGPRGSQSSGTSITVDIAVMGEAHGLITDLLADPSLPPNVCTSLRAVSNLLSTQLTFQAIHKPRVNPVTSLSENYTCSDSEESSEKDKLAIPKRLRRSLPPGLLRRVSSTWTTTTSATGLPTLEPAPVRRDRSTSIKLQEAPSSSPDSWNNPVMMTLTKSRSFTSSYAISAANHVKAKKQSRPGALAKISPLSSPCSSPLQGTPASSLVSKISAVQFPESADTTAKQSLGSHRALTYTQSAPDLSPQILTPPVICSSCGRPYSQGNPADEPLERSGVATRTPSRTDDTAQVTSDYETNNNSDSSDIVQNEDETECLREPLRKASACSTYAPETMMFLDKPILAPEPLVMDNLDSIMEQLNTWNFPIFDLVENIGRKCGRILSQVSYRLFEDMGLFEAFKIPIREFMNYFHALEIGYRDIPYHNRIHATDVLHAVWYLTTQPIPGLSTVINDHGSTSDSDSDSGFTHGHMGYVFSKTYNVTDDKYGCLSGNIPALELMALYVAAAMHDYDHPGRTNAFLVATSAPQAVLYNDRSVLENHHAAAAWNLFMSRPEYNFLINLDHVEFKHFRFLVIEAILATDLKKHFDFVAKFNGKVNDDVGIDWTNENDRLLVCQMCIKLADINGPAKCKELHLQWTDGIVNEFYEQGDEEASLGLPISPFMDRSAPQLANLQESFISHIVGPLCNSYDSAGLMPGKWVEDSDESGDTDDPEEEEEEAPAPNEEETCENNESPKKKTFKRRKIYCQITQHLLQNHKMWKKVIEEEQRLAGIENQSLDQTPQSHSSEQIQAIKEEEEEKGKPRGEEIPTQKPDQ
PDE1B, sequence (Q01064 whole entry): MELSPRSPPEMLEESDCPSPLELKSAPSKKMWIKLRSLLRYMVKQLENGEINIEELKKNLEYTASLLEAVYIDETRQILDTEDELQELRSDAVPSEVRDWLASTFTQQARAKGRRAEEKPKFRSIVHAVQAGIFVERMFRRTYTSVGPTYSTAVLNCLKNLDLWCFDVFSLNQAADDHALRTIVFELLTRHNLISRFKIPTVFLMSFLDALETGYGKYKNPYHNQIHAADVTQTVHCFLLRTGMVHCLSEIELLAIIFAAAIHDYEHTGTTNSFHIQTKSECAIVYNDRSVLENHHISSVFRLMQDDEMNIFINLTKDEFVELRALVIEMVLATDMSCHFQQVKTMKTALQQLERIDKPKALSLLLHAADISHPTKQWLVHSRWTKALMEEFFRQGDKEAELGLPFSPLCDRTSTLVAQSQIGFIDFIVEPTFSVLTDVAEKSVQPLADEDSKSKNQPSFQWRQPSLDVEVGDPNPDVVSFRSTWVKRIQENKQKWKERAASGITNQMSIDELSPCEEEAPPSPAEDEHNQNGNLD

In the case of `N[C@@H](Cc1ccc(O)c(O)c1)C(=O)O` [L-dopa, levodopa, reference compound], the figures for the “Letter Designation (statistical group of stride length)” value in test [1] (1 mg/kg L-DOPA) and in test [1] (5 mg/kg L-DOPA) were “B” and “A”, respectively. For the same compound, the results for the “Stride length (cm) MEAN ± SEM” value in test [1] (1 mg/kg L-DOPA) and in test [1] (5 mg/kg L-DOPA) were 5.78 ± 0.09 cm and 7.29 ± 0.07 cm, respectively. The “effect on stride length, in words” value in test [1] (MPTP-treated mice, 1 mg/kg L-dopa) is “did not result in a significant increase in stride length”; in test [1] (MPTP-treated mice, 5 mg/kg L-dopa), “returned stride length to control (unlesioned) values”.

What is called IC50 is the concentration that gives 50% inhibition. In the case of `O=C1Nc2c(Cl)ccc(OCCO)c2C2(CCCCC2)N1` [OM955], in test [2], the IC50 worked out at 51.8 nM; the “potency of PDE7A inhibition, in words” value was “moderate potency”; the “selectivity between PDE7A and PDE7B, in words” value was “little or no selectivity”; the “Fold Selectivity, PDE7A” value came out at 1 fold. Further, the “selectivity for inhibition of the PDE7A enzyme as compared to the other PDEs” value in test [2] is “greater than 100 fold”. In test [3], the “Fold Selectivity for PDE7A versus PDE1B” value was 342 fold. In test [4], the “Fold Selectivity for PDE7A versus PDE3A” value is above 192 fold. In test [5], the “Fold Selectivity for PDE7A versus PDE5A” value stood at 355 fold. In addition, the “Fold Selectivity for PDE7A versus PDE8A” value in test [6] was above 192 fold.

In turn, `COc1cc(N)ccc1-c1cc2c(c(=O)[nH]1)C(C1CCCCC1)N=[N+]2C` (stereo not drawn) [OM69] gave an IC50 in test [2] of 1.3 nM. Further, in test [2], the “potency of PDE7A inhibition, in words” value is recorded as “high potency”. Further, the “selectivity between PDE7A and PDE7B, in words” value in test [2] is recorded as “little or no selectivity”. In test [2], the “Fold Selectivity, PDE7A” value was found to be 1 fold. Further, the “selectivity for inhibition of the PDE7A enzyme as compared to the other PDEs” value in test [2] is “greater than 1000 fold”. Moreover, in test [3], the “Fold Selectivity for PDE7A versus PDE1B” value was 29,608 fold. In addition, the “Fold Selectivity for PDE7A versus PDE3A” value in test [4] is 8170 fold. Moreover, the “Fold Selectivity for PDE7A versus PDE5A” value in test [5] is on record as 4630 fold. In test [6], the “Fold Selectivity for PDE7A versus PDE8A” value is reported as above 7700 fold. Further, the “Letter Designation (statistical group of stride length)” value in test [1] (0.01 mg/kg OM69) was “B”; in test [1] (0.03 mg/kg OM69), “B”; in test [1] (0.05 mg/kg OM69) it was “C”; in test [1] (0.07 mg/kg OM69), “C”; in test [1] (0.1 mg/kg OM69) it was “A”. For the same compound, the “Stride length (cm) MEAN ± SEM” value was 5.77 ± 0.17 cm in test [1] (0.01 mg/kg OM69 IP); 5.93 ± 0.14 cm in test [1] (0.03 mg/kg OM69 IP); 6.38 ± 0.14 cm in test [1] (0.05 mg/kg OM69 IP); 6.65 ± 0.18 cm in test [1] (0.07 mg/kg OM69 IP); 7.23 ± 0.07 cm in test [1] (0.1 mg/kg OM69 IP). For the same compound, in test [1] (MPTP-treated mice), the “potency relative to L-dopa in restoring stride length” value was “approximately 50 fold”. Moreover, the “effect on stride length, in words” value in test [1] (MPTP-treated mice, 0.1 mg/kg OM69) is given as “returned stride length to control (unlesioned) values”; in test [1] (MPTP-treated mice, intermediate doses of OM69), “statistically significant (p<0.05) increase in stride length”; in test [1] (MPTP-treated mice, low doses of OM69 (0.01 mg/kg or 0.03 mg/kg)), “did not increase stride length”. In addition, the “dose dependence of the effect on stride length, in words” value in test [1] (MPTP-treated mice, FIG. 18) is “increases stride length in MPTP-treated mice in a dose-dependent manner”.
